Experimental findings from PubChem BioAssay (NCI) are described below.

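Method: 48-hour compound exposure of cells in 96-well plates, five concentrations, linear interpolation of endpoints. Here, GI50 denotes the concentration required for 50% inhibition of growth. TGI marks complete inhibition of growth.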 Bounds are passed on as bounds.

Among the test systems are U251 CNS; PC-3 prostate; COLO 205 colon; SNB-75 CNS; M14 melanoma; HOP-92 NSCLC; MDA-MB-231 breast; SN12C renal; SK-OV-3 ovarian; MCF7 breast.
Holding throughout (test): inhibition of tumour cell growth, NCI panel, 48 h

With `CN1CCN(CC(=O)N(C)c2ccc(N=C(c3ccccc3)c3c(O)[nH]c4ccc(C#N)cc34)cc2)CC1`, the GI50 is 2.14 µM in the experiment with U251 CNS; 2.37 µM in the experiment with PC-3 prostate; 0.528 µM in the experiment with COLO 205 colon; 1.51 µM in the experiment on M14 melanoma; 3.36 µM in the experiment on HOP-92 NSCLC; 2.66 µM in the experiment with MDA-MB-231 breast. Further, the GI50 was 1.56 µM in the experiment on SN12C renal, 0.614 µM in the experiment with SK-OV-3 ovarian and 0.451 µM in the experiment on MCF7 breast. For the same molecule, the TGI worked out at 6.88 µM in the experiment with U251 CNS; 17 µM in the experiment on PC-3 prostate; 12.4 µM with COLO 205 colon; 5.49 µM in the experiment on SNB-75 CNS; 3.27 µM in the experiment on M14 melanoma; 20.8 µM in the experiment with HOP-92 NSCLC. The TGI was determined as 6.32 µM in the experiment with MDA-MB-231 breast, 11.4 µM in the experiment on SN12C renal, 21.1 µM in the experiment on SK-OV-3 ovarian and 13.7 µM in the experiment with MCF7 breast.
For `COc1ccc(C(O)c2cc3c(N)c(C(=O)Nc4ccc(Cl)cc4)sc3nc2C)cc1` (centres undefined), the GI50 was 2.28 µM in the experiment on U251 CNS; 3.27 µM in the experiment with PC-3 prostate; 3.99 µM in the experiment with COLO 205 colon; 1.88 µM in the experiment on SNB-75 CNS; 1.74 µM in the experiment with M14 melanoma; 2.37 µM in the experiment on HOP-92 NSCLC. Moreover, the GI50 with MDA-MB-231 breast was 4.9 µM; in the experiment with SN12C renal, 5.53 µM; in the experiment on SK-OV-3 ovarian it was 3.21 µM; in the experiment on MCF7 breast, 0.707 µM. The TGI was 15.8 µM in the experiment on U251 CNS; 22.2 µM in the experiment with PC-3 prostate; 23 µM in the experiment on COLO 205 colon; 7.25 µM with SNB-75 CNS; 29.9 µM with M14 melanoma; 18.3 µM in the experiment with HOP-92 NSCLC. Moreover, the TGI with MDA-MB-231 breast is 28.8 µM; in the experiment on SN12C renal, 24.9 µM; in the experiment on SK-OV-3 ovarian, 15.5 µM; in the experiment on MCF7 breast it was 17.2 µM.
Turning to `CCOC(=O)[C@@H](C)C[C@H](Cc1ccccc1)NC(=O)c1csc([C@@H](C[C@H](C(C)C)N(C)C(=O)[C@@H](NC(=O)[C@H]2CCCCN2C)C(C)(C)CC)OC(C)=O)n1`, the GI50 is under 0.00167 µM in the experiment on U251 CNS; under 0.00167 µM with PC-3 prostate; under 0.00167 µM with COLO 205 colon; under 0.00167 µM in the experiment on SNB-75 CNS; under 0.00167 µM with M14 melanoma; 0.0019 µM in the experiment with HOP-92 NSCLC. Besides, the GI50 was 0.00283 µM in the experiment with MDA-MB-231 breast, 0.00247 µM in the experiment on SN12C renal, under 0.00167 µM in the experiment with SK-OV-3 ovarian and under 0.00167 µM in the experiment with MCF7 breast. For the same molecule, the TGI in the experiment on U251 CNS was over 7.64 µM; with PC-3 prostate, over 16.7 µM; in the experiment with COLO 205 colon it was 0.003 µM; in the experiment on SNB-75 CNS, 13.9 µM; with M14 melanoma, 1.8 µM; in the experiment on HOP-92 NSCLC, 5.69 µM. In addition, the TGI in the experiment on MDA-MB-231 breast was 1.18 µM; with SN12C renal, 5.9 µM; in the experiment on SK-OV-3 ovarian it was over 16.7 µM; in the experiment on MCF7 breast it was over 16.7 µM.
In the case of `COc1cc(/C=C2\C(=O)N(Cc3ccc(Cl)cc3)c3ccccc32)cc(OC)c1OC`, the GI50 was 1.75 µM with U251 CNS; 2.43 µM with PC-3 prostate; 3.15 µM in the experiment on COLO 205 colon; 5.31 µM in the experiment with SNB-75 CNS; 2.45 µM in the experiment on M14 melanoma; 1.64 µM in the experiment on HOP-92 NSCLC. Further, the GI50 with MDA-MB-231 breast is 2.48 µM; with SN12C renal it was 2.59 µM; in the experiment on SK-OV-3 ovarian, 6.82 µM; with MCF7 breast, 2.97 µM. Further, the TGI is 3.44 µM with U251 CNS; 17.2 µM in the experiment with PC-3 prostate; 8.52 µM in the experiment on COLO 205 colon; over 100 µM with SNB-75 CNS; 7.01 µM in the experiment with M14 melanoma; 5.74 µM in the experiment with HOP-92 NSCLC. The TGI in the experiment with MDA-MB-231 breast is 18.4 µM; in the experiment with SN12C renal it was 8.99 µM; in the experiment with SK-OV-3 ovarian, over 89.4 µM; with MCF7 breast it was over 61.7 µM.
In the case of `Cn1cc(/C=C\[N+](=O)[O-])c2ccccc21`, the GI50 with U251 CNS is 36.5 µM; in the experiment with PC-3 prostate it was 35.5 µM; with COLO 205 colon, 42.3 µM; with SNB-75 CNS it was 26.2 µM; with M14 melanoma, 37.1 µM; in the experiment on HOP-92 NSCLC it was 30.6 µM. In addition, the GI50 in the experiment on MDA-MB-231 breast is 23.4 µM; in the experiment on SN12C renal, over 100 µM; in the experiment with SK-OV-3 ovarian, over 100 µM; in the experiment on MCF7 breast, 21 µM. In addition, the TGI with U251 CNS is over 100 µM; with PC-3 prostate, over 100 µM; in the experiment with COLO 205 colon, over 100 µM; in the experiment on SNB-75 CNS, 75.8 µM; with M14 melanoma, over 100 µM; in the experiment on HOP-92 NSCLC, over 100 µM. For the same molecule, the TGI is 78.8 µM with MDA-MB-231 breast, over 100 µM in the experiment on SN12C renal, over 100 µM in the experiment on SK-OV-3 ovarian and 80.6 µM in the experiment with MCF7 breast.
In the case of `O=C1NC(=S)S/C1=C\c1cn(-c2ccccc2)nc1-c1ccccc1`, the GI50 in the experiment with U251 CNS is 5.54 µM; with PC-3 prostate, 5.66 µM; in the experiment on COLO 205 colon, 21.2 µM; in the experiment with SNB-75 CNS it was 17.8 µM; in the experiment with M14 melanoma, 6.75 µM; with HOP-92 NSCLC, 0.623 µM. In addition, the GI50 in the experiment on MDA-MB-231 breast is 10.1 µM; in the experiment on SN12C renal, 9.93 µM; in the experiment on SK-OV-3 ovarian it was 11.9 µM; with MCF7 breast, 8.31 µM. Moreover, the TGI is 21.2 µM with U251 CNS; over 100 µM in the experiment on PC-3 prostate; 75.8 µM in the experiment on COLO 205 colon; 51.3 µM in the experiment with SNB-75 CNS; 80.2 µM in the experiment on M14 melanoma; 5.34 µM in the experiment on HOP-92 NSCLC. In addition, the TGI in the experiment on MDA-MB-231 breast is 33.3 µM; in the experiment on SN12C renal, over 100 µM; in the experiment with SK-OV-3 ovarian, 42.2 µM; with MCF7 breast, 94.1 µM.
